According to US11447504B2, “Macrocyclic chlorine substituted indole derivatives” (Bayer Aktiengesellschaft, priority 2017, dated 2022):
Where a name gives a salt, the structure may show the parent alone. Read-outs that look alike come from different tables or passages of the source.

Tests used:
SUDHL5 [1] = assay: Induction of caspase-3/7 activity (Assay 4), SUDHL5; format: cell-based; conditions: SUDHL5 cells
Summary of the method: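 DLBCL cells treated with compounds for 3 hours at 37° C. Caspase-3/7 activity measured by Caspase-Glo 3/7 luminescence, with medium-only background subtracted.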

SUDHL5 [2] = assay: Antiproliferation assay 7, SUDHL5; format: cell-based; conditions: SUDHL5 cells, CellTiter-Glo, read-out: Antiproli SUDHL5 IC50 (median)
Summary of the method: (§1)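 Proliferation was read by CellTiter-Glo luminescence after 72 hours of compound treatment at 37° C. The read was referenced to a parallel plate measured at time zero.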

SUDHL5 [3] = assay: Induction of cytotoxicity (Assay 6), SUDHL5
SUDHL10 [4] = assay: Induction of caspase-3/7 activity (Assay 4), SUDHL10; format: cell-based; conditions: SUDHL10 cells
Summary of the method: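 Luminescent Caspase-Glo 3/7 read-out after a 3 h, 37 °C compound exposure of the DLBCL line SUDHL10. Values are background-corrected using medium-only wells.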

SUDHL10 [5] = assay: Antiproliferation assay 7, SUDHL10; format: cell-based; conditions: SUDHL10 cells, CellTiter-Glo, read-out: Antiproli SUDHL10 IC50 (median)
Protocol: Assessment of the Anti-Proliferative Effect of Compounds in Different Cell Lines
The impact of compounds on the proliferation of different cell lines was assessed using the CellTiter-Glo® Luminescent Cell Viability reagent from Promega (G7573).
In parallel, cells were plated in a reference (day 0) plate for time zero determination.
Rim wells were excluded. The cells were incubated for 72 hours in a humidified incubator at 37° C. The day 0 plate was measured by adding 30 μL/well of CTG solution (CellTiter-Glo® Luminescent Cell Viability reagent, Promega G7573) to time zero wells in the reference plate followed by a 10 minutes incubation and luminescence reading at 0.1 ms. using the PHERAstar FS microplate reader (BMG Labtech).
After 72 hours incubation, the treated plates were measured in the same way as the day 0 plate mentioned above.

MV-4-11 = assay: Antiproliferation assay 7, MV-4-11; format: cell-based; conditions: Homo sapiens, MV4-11, 72 h, MV-4-11 cells, CellTiter-Glo, read-out: Antiproli MV-4-11 IC50 median
Summary of the method: as §1

SUDHL10 [6] = assay: Induction of cytotoxicity (Assay 6), SUDHL10
AMO-1 = assay: Antiproliferation assay 7, AMO-1; format: cell-based; conditions: AMO-1 cells, CellTiter-Glo, read-out: Antiproli AMO-1 IC50 median
Summary of the method: as §1

HMC-1-8 = assay: Antiproliferation assay 7, HMC-1-8; format: cell-based; conditions: HMC-1-8 cells, CellTiter-Glo, read-out: Antiproli HMC-1-8 IC50 median
Summary of the method: as §1

MCL-1 = MCL-1 (Homo sapiens (Human), UniProt Q07820, K194A/K197A/R201A); assay: Protein-protein interaction assay MCL-1/Noxa BH3 peptide (MCL-1 Assay, TR-FRET); format: binding; conditions: read-out: MCL-1 Assay IC50 (median)
MCL-1, sequence (Q07820 whole entry K194A/K197A/R201A, looked up, the tested form may be a part): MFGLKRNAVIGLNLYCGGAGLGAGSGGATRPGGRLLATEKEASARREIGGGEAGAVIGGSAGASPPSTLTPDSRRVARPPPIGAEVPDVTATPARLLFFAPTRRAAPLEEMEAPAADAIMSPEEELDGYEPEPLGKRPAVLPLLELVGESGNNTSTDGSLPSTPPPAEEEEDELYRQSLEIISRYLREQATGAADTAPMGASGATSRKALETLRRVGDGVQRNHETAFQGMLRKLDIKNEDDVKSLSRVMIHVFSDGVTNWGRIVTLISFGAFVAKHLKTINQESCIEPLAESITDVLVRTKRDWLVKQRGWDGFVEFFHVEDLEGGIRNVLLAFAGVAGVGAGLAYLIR
Protocol: The dose-dependent inhibition by the compounds described in this invention of the interaction between MCL-1 and the BH3 domain of Noxa (both human) was determined using a steady state binding competition assay with time-resolved fluorescence energy transfer (TR-FRET) readout. […] The MBP-MCL-1 was purchased from Beryllium (Bedford, Mass., USA). The expression and purification of this protein construct has been described elsewhere (DOI:10.1371/journal.pone.0125010). The Noxa BH3-derived peptide can be obtained from e.g. Biosyntan (Berlin, Germany).
(§2) For that, 100-fold concentrated DMSO solutions were prepared by serial dilutions (1:3.4) of a 2 mM stock solution in a clear, 384-well microtiter plate (Greiner Bio-One, Frickenhausen, Germany). From there, 50 nl were transferred in a dark test plate (Greiner Bio-One, Frickenhausen, Germany). […] This was followed by a 10-minute incubation step at 22° C. for pre-equilibration of the putative complex between MBP-MCL-1 and the compounds.
(§3) The mixture was incubated in the dark for one hour at 22° C. and then overnight at 4° C.
(§4) The resulting data (ratio) were normalized, taking 0% inhibition as the mean value of control measurements (usually 32 data points) where all reagents were included. In this case 50 nl DMSO were used instead of compounds. […] IC50 values were determined by regression analysis based on a 4 parameter equation (minimum, maximum, IC50, Hill; Y=Max+(Min−Max)/(1+(X/IC50)^Hill) using the Screener Software (Genedata).

BCL-XL = BCL-XL (Homo sapiens (Human), UniProt Q07817); assay: Protein-protein interaction assay BCL-XL/Bad BH3 peptide (BCL-XL Assay, TR-FRET); format: binding; conditions: read-out: BCL-XL Assay IC50 (median)
BCL-XL, sequence (Q07817 other isoform, or with tags, fused parts or gaps): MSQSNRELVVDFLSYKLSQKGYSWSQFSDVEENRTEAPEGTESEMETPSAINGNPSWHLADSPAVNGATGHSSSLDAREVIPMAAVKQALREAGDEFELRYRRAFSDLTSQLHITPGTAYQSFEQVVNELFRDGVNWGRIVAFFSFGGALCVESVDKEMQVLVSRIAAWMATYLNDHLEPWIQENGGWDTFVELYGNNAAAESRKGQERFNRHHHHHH
Protocol: Assay 2 Protein-Protein Interaction Assay: BCL-XL/Bad BH3 Peptide (BCL-XL Assay)
The dose-dependent inhibition by the compounds described in this invention of the interaction between BCL-XL and the BH3 domain of Bad (both human) was determined using a steady state binding competition assay with time-resolved fluorescence energy transfer (TR-FRET) readout.
as §2, with “His-BCL-XL” for “MBP-MCL-1”
The mixture was incubated in the dark for one hour at 22° C. and then overnight at 4° C. The formation of BCL-XL/Bad complexes was determined by measuring the resonance energy transfer of the anti-His- Eu-cryptate antibody to the streptavidin-XL665 present in the reaction.
as §4

BCL-2 = BCL-2 (Homo sapiens (Human), UniProt P10415); assay: Protein-protein interaction assay BCL-2/Bad BH3 peptide (BCL-2 Assay, TR-FRET); format: binding; conditions: read-out: BCL-2 Assay IC50 (median)
BCL-2, sequence (P10415 other isoform, or with tags, fused parts or gaps): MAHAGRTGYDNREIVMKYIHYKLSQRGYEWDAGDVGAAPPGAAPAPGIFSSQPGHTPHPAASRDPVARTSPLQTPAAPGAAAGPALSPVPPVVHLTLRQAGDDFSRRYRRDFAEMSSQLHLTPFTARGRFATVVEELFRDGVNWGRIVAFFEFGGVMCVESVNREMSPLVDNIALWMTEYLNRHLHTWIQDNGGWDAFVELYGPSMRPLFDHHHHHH
Protocol: The dose-dependent inhibition by the compounds described in this invention of the interaction between BCL-2 and the BH3 domain of Bad (both human) was determined using a steady state binding competition assay with time-resolved fluorescence energy transfer (TR-FRET) readout.
as §2, with “His-BCL-2” for “MBP-MCL-1”
as §3, §4

[7] = Homo sapiens, SU-DHL-5, 3 h, Caspase-Glo 3/7, read-out: Caspase SUDHL5 EC50 (median)
[8] = Homo sapiens, SU-DHL-5, 5 h, read-out: Cytotox SUDHL5 IC50 (median), SUDHL5 cells, 5 hours, CellTiter-Glo
[9] = Homo sapiens, SU-DHL10, 3 h, Caspase-Glo 3/7, read-out: Caspase SUDHL10 EC50 (median)
[10] = Homo sapiens, SU-DHL10, 5 h, read-out: Cytotox SUDHL10 IC50 (median), SUDHL10 cells, 5 hours, CellTiter-Glo
[11] = 3 hours, Caspase-Glo 3/7, read-out: Caspase SUDHL5 EC50 (median)
[12] = read-out: Cytotox SUDHL10 IC50 (median), SUDHL10 cells, 5 hours, CellTiter-Glo
[13] = read-out: Cytotox SUDHL5 IC50 (median), SUDHL5 cells, 5 hours, CellTiter-Glo
[14] = 3 hours, Caspase-Glo 3/7, read-out: Caspase SUDHL10 EC50 (median)

Compound `Cc1nn(C)c2c1-c1c(Cl)ccc3c(CCCOc4cccc5ccccc45)c(C(=O)O)n(c13)C/C=C\COC2` (racemic) [Example 1, (rac)-(11Z)-4-chloro-1,3-dimethyl-7-[3-(naphthalen-1-yloxy)propyl]-1,10,13,15-tetrahydropyrazolo[4′,3′:9,10][1,6]oxazacycloundecino[8,7,6-hi]indole-8-carboxylic Acid] has an EC50 (SUDHL5 [1]; [7]) of 2.9 µM, an IC50 (SUDHL5 [2]; Homo sapiens, SU-DHL-5, 72 h) of 5.7 µM and an IC50 (SUDHL5 [3]; [8]) of 2.9 µM. It also gave an EC50 (SUDHL10 [4]; [9]) of 5.5 µM and an IC50 (SUDHL10 [5]; Homo sapiens, SU-DHL10, 72 h) of 5.7 µM.

Work on `CCc1c2c(nn1C)CN(C)CCCCn1c(C(=O)O)c(CCCOc3cccc4cc(F)ccc34)c3ccc(Cl)c-2c31` (racemic) [Example 5, (rac)-4-chloro-3-ethyl-7-{3-[(6-fluoronaphthalen-1-yl)oxy]propyl}-2,14-dimethyl-10,11,12,13,14,15-hexahydro-2H-pyrazolo[3′,4′:8,9][1,6]diazacycloundecino[10,11,1-hi]indole-8-carboxylic Acid] yielded an IC50 (MV-4-11) of 0.701 µM, an EC50 (SUDHL5 [1]; [7]) of 0.27 µM and an IC50 (SUDHL10 [6]; [10]) of 0.53 µM. For the same compound, the IC50 (AMO-1; Homo sapiens, AMO1, 72 h) was 0.611 µM, the IC50 (SUDHL5 [2]; Homo sapiens, SU-DHL-5, 72 h) was 0.33 µM and the IC50 (SUDHL5 [3]; [8]) was 0.29 µM. The EC50 (SUDHL10 [4]; [9]) was 0.61 µM and the IC50 (SUDHL10 [5]; Homo sapiens, SU-DHL10, 72 h) was 0.28 µM.

`Cc1c2c(nn1C)COCCCCn1c(C(=O)O)c(CCCOc3cccc4cc(F)ccc34)c3ccc(Cl)c-2c31` (racemic) [Example 14, (rac)-4-chloro-7-{3-[(6-fluoronaphthalen-1-yl)oxy]propyl}-2,3-dimethyl-2,10,11,12,13,15-hexahydropyrazolo[4′,3′:9,10][1,6]oxazacycloundecino[8,7,6-hi]indole-8-carboxylic Acid] was tested, and the IC50 (MV-4-11) was 1.23 µM, the EC50 (SUDHL5 [1]; [7]) was 0.25 µM and the IC50 (SUDHL10 [6]; [10]) was 0.61 µM. The IC50 (AMO-1; Homo sapiens, AMO1, 72 h) was 0.737 µM, the IC50 (SUDHL5 [2]; Homo sapiens, SU-DHL-5, 72 h) was 0.51 µM and the IC50 (SUDHL5 [3]; [8]) was 0.39 µM. The EC50 (SUDHL10 [4]; [9]) was 0.41 µM and the IC50 (SUDHL10 [5]; Homo sapiens, SU-DHL10, 72 h) was 0.42 µM.

`Cc1c2c(nn1C)CN(C)CCCCn1c(C(=O)O)c(CCCOc3cccc4cc(F)ccc34)c3ccc(Cl)c-2c31` (racemic) [Example 30, (rac)-4-chloro-7-{3-[(6-fluoronaphthalen-1-yl)oxy]propyl}-2,3,14-trimethyl-10,11,12,13,14,15-hexahydro-2H-pyrazolo[3′,4′:8,9][1,6]diazacycloundecino[10,11,1-hi]indole-8-carboxylic Acid] showed an IC50 (MV-4-11) of 0.293 µM, an EC50 (SUDHL5 [1]; [7]) of 0.18 µM and an IC50 (HMC-1-8; 72 h) of 1.56 µM. For the same compound, the IC50 (SUDHL10 [6]; [10]) was 0.34 µM, the IC50 (AMO-1; Homo sapiens, AMO1, 72 h) was 0.415 µM and the IC50 (SUDHL5 [2]; Homo sapiens, SU-DHL-5, 72 h) was 0.17 µM. For the same compound, the IC50 (SUDHL5 [3]; [8]) was 0.21 µM, the EC50 (SUDHL10 [4]; [9]) was 0.37 µM and the IC50 (SUDHL10 [5]; Homo sapiens, SU-DHL10, 72 h) was 0.15 µM. The IC50 (MCL-1) was 0.00092 µM.

`Cc1nn(C)c2c1-c1c(Cl)ccc3c(CCCOc4cccc5ccccc45)c(C(=O)O)n(c13)CCCCOC2` (single isomer, unassigned; enantiomer 2) [Example 4, 4-chloro-1,3-dimethyl-7-[3-(naphthalen-1-yloxy)propyl]-1,10,11,12,13,15-hexahydropyrazolo[4′,3′:9,10][1,6]oxazacycloundecino[8,7,6-hi]indole-8-carboxylic Acid (Enantiomer 2)] showed an EC50 (SUDHL5 [1]; [11]) greater than 28 µM, an IC50 (SUDHL10 [6]; [12]) greater than 33 µM and an IC50 (SUDHL5 [2]; 72 hours) of 13 µM. The IC50 (SUDHL5 [3]; [13]) was 26 µM, the EC50 (SUDHL10 [4]; [14]) was greater than 33 µM and the IC50 (SUDHL10 [5]; 72 hours) was 12 µM.

With `CCc1c2c(nn1C)N(C)CCCCCn1c(C(=O)O)c(CCCOc3cccc4cc(F)ccc34)c3ccc(Cl)c-2c31` (single isomer, unassigned; enantiomer 2) [Example 79, 4-chloro-3-ethyl-7-{3-[(6-fluoronaphthalen-1-yl)oxy]propyl}-2,15-dimethyl-10,11,12,13,14,15-hexahydro-2H-pyrazolo[4′,3′:4,5][1,6]diazacycloundecino[3,2,1-hi]indole-8-carboxylic acid N-ethylethanamine Salt—Enantiomer 2] the EC50 (SUDHL5 [1]; [11]) was 2.8 µM, the IC50 (BCL-XL) was greater than 20 µM and the IC50 (HMC-1-8; 72 hours) was 14 µM. It also gave an IC50 (SUDHL10 [6]; [12]) of 5.1 µM, an IC50 (AMO-1; 72 hours) of 7.4 µM and an IC50 (SUDHL5 [2]; 72 hours) of 3.8 µM. It also gave an IC50 (SUDHL5 [3]; [13]) of 2.2 µM, an EC50 (SUDHL10 [4]; [14]) of 5.4 µM and an IC50 (BCL-2) greater than 20 µM.

`Cc1c2c(nn1C)N(C)CCCCCn1c(C(=O)O)c(CCCOc3cccc4cc(F)ccc34)c3ccc(Cl)c-2c31` [Example 76, (−)-4-chloro-7-{3-[(6-fluoronaphthalen-1-yl)oxy]propyl}-2,3,15-trimethyl-10,11,12,13,14,15-hexahydro-2H-pyrazolo[4′,3′:4,5][1,6]diazacycloundecino[3,2,1-hi]indole-8-carboxylic acid-N-ethylethanamine salt] was tested, and the EC50 (SUDHL5 [1]; [11]) was 3.2 µM, the IC50 (BCL-XL) was greater than 20 µM and the IC50 (HMC-1-8; 72 hours) was 13 µM. The IC50 (SUDHL10 [6]; [12]) was 7 µM, the IC50 (AMO-1; 72 hours) was 8.6 µM and the IC50 (SUDHL5 [2]; 72 hours) was 4.6 µM. The IC50 (SUDHL5 [3]; [13]) was 3 µM, the EC50 (SUDHL10 [4]; [14]) was 6.1 µM and the IC50 (BCL-2) was greater than 20 µM.
